What was measured:
[1] = NO endogenously synthesized by vascular endothelial cells; cited from earlier work
[2] = Kinetics of NO decomposition from RSNOs in aqueous medium (UV-Vis absorbance at 545 nm); type: physicochemical; conditions: for NO decomposition rate (order of decay slopes): 0.1 N HCl, 22° C., similar initial solution concentrations, FIG. 5
Protocol: In this invention, GSHEE and phytochelatin are being used for the first time as NO donors. […] Their stability in aqueous medium was explored using the UV-Vis Spectrophotometer. Solutions of all RSNOs for this stability study were synthesized according to Example 1. Their decomposition kinetics in these solutions at room temperature was obtained from the time dependent absorbance changes at 545 nm in time intervals of 10 min.
A good linearity is obtained for all three curves, from the decay slopes, it can be seen that NO decomposition rate decreases in the order of GSNO>S-Nitroso-GSHEE>S-nitroso-PC5.

| SMILES | biological half life [1] [sec] | NO decomposition rate (order of decay slopes) [2] | NO dissociation from GSNO ([2]; acidic and neutral medium, room condition (22° C.), FIG. 1) |
| --- | --- | --- | --- |
| [N]=O [NO, nitric oxide] | ≤ 5 | – | – |
| N[C@@H](CCC(=O)N[C@@H](CSN=O)C(=O)NCC(=O)O)C(=O)O [GSNO, S-nitrosoglutathione] | – | GSNO>S-Nitroso-GSHEE>S-nitroso-PC5 | continuously dissociates |
| CCOC(=O)CNC(=O)C(CSN=O)NC(=O)CCC(N)C(=O)O (stereo not shown) [S-Nitroso-GSHEE] | – | GSNO>S-Nitroso-GSHEE>S-nitroso-PC5 | – |

Source: patent US8992945B2, “Supramacromolecular polymer complexes providing controlled nitric oxide release for healing wounds” (University of Toronto, priority 2007, dated 2015)
